According to US20100267637A1, “TREATMENT OF MELANOMA WITH ALPHA THYMOSIN PEPTIDES IN COMBINATION WITH A KINASE INHIBITOR” (SciClone Pharmaceuticals, Inc., priority 2007, published 2010):

Test system: murine B16 melanoma cells
Assay: Anti-tumor effect: tumor size / tumor volume in mice bearing subcutaneous B16 melanoma
Type: in vivo, C57BL/6 mice
Design: key to Tumor measurement L (length) / Tumor measurement W (width): The sign “—” indicates that tumor does not reach a measurable size
Conditions: for Tumor Volume (cm^3) (Mean ± SD): group mean; for PI (TV), percent inhibition of tumor volume: vs vehicle
Experimental: The toxic effects of the dosing regimens were also monitored. […] Meanwhile 9H10 was given in two groups via i.p. on Day 3, 6 and 9. […] Tumor volume and body weight were measured every three days, and tumor weights were measured on Day 16 at the end of the study.
As per aseptic tissue culture procedures, one vial of B16 melanoma cells was removed from the liquid nitrogen stock, and placed into a 37° C. water bath. Gentle swirling was conducted until the content of the vial was thawed. Using tissue culture/sterile procedures, the cells were immediately centrifuged with a TD5A-WS centrifuge at 1000 rpm, 20-25° C., 5 min. After centrifugation, the cells were suspended in 0.1 to 0.5 mL normal saline (NS) and subcutaneously injected into 10 mice (0.1 mL/mouse, about 1×10^6 cells). After 7-10 days, when the tumor diameter was approximately 1 cm, the animals were euthanized with CO2 overdose and the tumors excised. The procedure was repeated with 20 mice to generate a sufficient number of B16 melanoma cells with adequate transplantability.
On the day of tumor implantation, approximately 1×10^6 cells in 0.1 mL were subcutaneously injected on the right axillary area of each mouse. The day of tumor implantation was defined as Day 0.
On Day 3, the animals were randomly assigned into nine different weight-matched and tumor-size-matched groups. Dosing was started on Day 3 using the regimen according to Table 2.
From Day 1 to Day 15, mortality and moribundity were checked twice daily, the body weights were recorded once every 3 days, and tumors were measured using a caliper once every 3 days. At the end of the study (Day 16), the animals were euthanized by CO2 asphyxiation, and the tumors were excised and weighed.
Based on the tumor size, the tumor volume (TV) was calculated with the formula: [TV=(Length×Width×Width)/2]. And the percent inhibition (PI) of TV (PITV) was calculated according to the equation below:
PITV(%)=(TV vehicle−TVdrug treated)/TV vehicle×100
Inter-group comparison was performed in terms of tumor volume, tumor weight and body weight, using a student's t test. P values of less than 0.05 were considered to be statistically significant.

Question: `CN(C)/N=N/c1[nH]cnc1C(N)=O` [DTIC, Dacarbazine] was tested. Which “Tumor measurement L (length)” value (Day 3, animal F1) did it give?
Answer: —

Question: What about the “Tumor measurement W (width)” value (Day 3, animal F1) of the same compound?
Answer: —

Question: And the Tumor volume (Day 3, animal F1)?
Answer: 0.0000 cm^3

Question: What about the “Tumor measurement L (length)” value (Day 3, animal F2) of the same compound?
Answer: —

Question: And the “Tumor measurement W (width)” value (Day 3, animal F2)?
Answer: —

Question: And the Tumor volume (Day 3, animal F2)?
Answer: 0.0000 cm^3

Question: What about the “Tumor measurement L (length)” value (Day 3, animal F3) of the same compound?
Answer: 0.20 cm

Question: What about the “Tumor measurement W (width)” value (Day 3, animal F3) of the same compound?
Answer: 0.20 cm

Question: And the Tumor volume (Day 3, animal F3)?
Answer: 0.0040 cm^3

Question: What about the “Tumor measurement L (length)” value (Day 3, animal F4) of the same compound?
Answer: —

Question: And the “Tumor measurement W (width)” value (Day 3, animal F4)?
Answer: —

Question: What about the Tumor volume (Day 3, animal F4) of the same compound?
Answer: 0.0000 cm^3

Question: What about the “Tumor measurement L (length)” value (Day 3, animal F5) of the same compound?
Answer: —

Question: What about the “Tumor measurement W (width)” value (Day 3, animal F5) of the same compound?
Answer: —

Question: What about the Tumor volume (Day 3, animal F5) of the same compound?
Answer: 0.0000 cm^3

Question: And the “Tumor measurement L (length)” value (Day 3, animal M1)?
Answer: —

Question: And the “Tumor measurement W (width)” value (Day 3, animal M1)?
Answer: —

Question: And the Tumor volume (Day 3, animal M1)?
Answer: 0.0000 cm^3

Question: And the “Tumor measurement L (length)” value (Day 3, animal M2)?
Answer: 0.10 cm

Question: What about the “Tumor measurement W (width)” value (Day 3, animal M2) of the same compound?
Answer: 0.10 cm

Question: What about the Tumor volume (Day 3, animal M2) of the same compound?
Answer: 0.0005 cm^3

Question: And the “Tumor measurement L (length)” value (Day 3, animal M3)?
Answer: —

Question: And the “Tumor measurement W (width)” value (Day 3, animal M3)?
Answer: —

Question: What about the Tumor volume (Day 3, animal M3) of the same compound?
Answer: 0.0000 cm^3

Question: And the “Tumor measurement L (length)” value (Day 3, animal M4)?
Answer: —

Question: And the “Tumor measurement W (width)” value (Day 3, animal M4)?
Answer: —

Question: And the Tumor volume (Day 3, animal M4)?
Answer: 0.0000 cm^3

Question: What about the “Tumor measurement L (length)” value (Day 3, animal M5) of the same compound?
Answer: 0.10 cm

Question: What about the “Tumor measurement W (width)” value (Day 3, animal M5) of the same compound?
Answer: 0.10 cm

Question: What about the Tumor volume (Day 3, animal M5) of the same compound?
Answer: 0.0005 cm^3

Question: And the “Tumor Volume (cm^3) (Mean ± SD)” value (Day 3)?
Answer: 0.001 ± 0.0012 cm^3

Question: And the “PI (TV), percent inhibition of tumor volume” value (Day 3)?
Answer: −400.00%

Question: What about the “Tumor measurement L (length)” value (Day 6, animal F1) of the same compound?
Answer: —

Question: What about the “Tumor measurement W (width)” value (Day 6, animal F1) of the same compound?
Answer: —

Question: What about the Tumor volume (Day 6, animal F1) of the same compound?
Answer: 0.0000 cm^3

Question: And the “Tumor measurement L (length)” value (Day 6, animal F2)?
Answer: —

Question: What about the “Tumor measurement W (width)” value (Day 6, animal F2) of the same compound?
Answer: —

Question: And the Tumor volume (Day 6, animal F2)?
Answer: 0.0000 cm^3

Question: What about the “Tumor measurement L (length)” value (Day 6, animal F3) of the same compound?
Answer: 0.10 cm

Question: What about the “Tumor measurement W (width)” value (Day 6, animal F3) of the same compound?
Answer: 0.10 cm

Question: And the Tumor volume (Day 6, animal F3)?
Answer: 0.0005 cm^3

Question: What about the “Tumor measurement L (length)” value (Day 6, animal F4) of the same compound?
Answer: —

Question: And the “Tumor measurement W (width)” value (Day 6, animal F4)?
Answer: —

Question: And the Tumor volume (Day 6, animal F4)?
Answer: 0.0000 cm^3

Question: And the “Tumor measurement L (length)” value (Day 6, animal F5)?
Answer: —

Question: What about the “Tumor measurement W (width)” value (Day 6, animal F5) of the same compound?
Answer: —

Question: And the Tumor volume (Day 6, animal F5)?
Answer: 0.0000 cm^3

Question: What about the “Tumor measurement L (length)” value (Day 6, animal M1) of the same compound?
Answer: —

Question: And the “Tumor measurement W (width)” value (Day 6, animal M1)?
Answer: —

Question: What about the Tumor volume (Day 6, animal M1) of the same compound?
Answer: 0.0000 cm^3

Question: And the “Tumor measurement L (length)” value (Day 6, animal M2)?
Answer: —

Question: What about the “Tumor measurement W (width)” value (Day 6, animal M2) of the same compound?
Answer: —

Question: What about the Tumor volume (Day 6, animal M2) of the same compound?
Answer: 0.0000 cm^3

Question: What about the “Tumor measurement L (length)” value (Day 6, animal M3) of the same compound?
Answer: —

Question: What about the “Tumor measurement W (width)” value (Day 6, animal M3) of the same compound?
Answer: —

Question: And the Tumor volume (Day 6, animal M3)?
Answer: 0.0000 cm^3

Question: And the “Tumor measurement L (length)” value (Day 6, animal M4)?
Answer: —

Question: And the “Tumor measurement W (width)” value (Day 6, animal M4)?
Answer: —

Question: And the Tumor volume (Day 6, animal M4)?
Answer: 0.0000 cm^3

Question: What about the “Tumor measurement L (length)” value (Day 6, animal M5) of the same compound?
Answer: —

Question: And the “Tumor measurement W (width)” value (Day 6, animal M5)?
Answer: —

Question: And the Tumor volume (Day 6, animal M5)?
Answer: 0.0000 cm^3

Question: What about the “Tumor Volume (cm^3) (Mean ± SD)” value (Day 6) of the same compound?
Answer: 0.000 ± 0.0002 cm^3

Question: What about the “PI (TV), percent inhibition of tumor volume” value (Day 6) of the same compound?
Answer: 90.91%

Question: And the “Tumor measurement L (length)” value (Day 9, animal F1)?
Answer: 0.20 cm

Question: What about the “Tumor measurement W (width)” value (Day 9, animal F1) of the same compound?
Answer: 0.20 cm

Question: What about the Tumor volume (Day 9, animal F1) of the same compound?
Answer: 0.0040 cm^3

Question: And the Tumor volume (Day 9, animal F2)?
Answer: 0.0000 cm^3

Question: And the “Tumor measurement L (length)” value (Day 9, animal F3)?
Answer: 0.10 cm

Question: And the “Tumor measurement W (width)” value (Day 9, animal F3)?
Answer: 0.10 cm

Question: And the Tumor volume (Day 9, animal F3)?
Answer: 0.0005 cm^3

Question: And the “Tumor measurement L (length)” value (Day 9, animal F4)?
Answer: 0.10 cm

Question: What about the “Tumor measurement W (width)” value (Day 9, animal F4) of the same compound?
Answer: 0.10 cm

Question: And the Tumor volume (Day 9, animal F4)?
Answer: 0.0005 cm^3

Question: What about the “Tumor measurement L (length)” value (Day 9, animal F5) of the same compound?
Answer: 0.10 cm

Question: What about the “Tumor measurement W (width)” value (Day 9, animal F5) of the same compound?
Answer: 0.10 cm

Question: What about the Tumor volume (Day 9, animal F5) of the same compound?
Answer: 0.0005 cm^3

Question: And the “Tumor measurement L (length)” value (Day 9, animal M1)?
Answer: 0.30 cm

Question: And the “Tumor measurement W (width)” value (Day 9, animal M1)?
Answer: 0.30 cm
